# Test results taken from patent US20090076130A1, “COMPOUNDS FOR THE INHIBITION OF HISTONE DEACETYLASE” (NATUREWISE BIOTECH & MEDICALS CORPORATION, priority 2007, published 2009).
# Assays:
# [1] = tested on: SMN2 protein; details: fibroblast cells derived from SMA patients, 64 hours of treatment; cited from earlier work
# [2] = tested on: human breast MCF-7 cancer cells; assay: Growth and morphology of breast cancer MCF-7 cells; assay type: cell-based
# Procedure: The breast cancer MCF-7 cells, were cultured in Dulbecco's modified Eagle's medium (DMEM; Gibco) supplemented with penicillin G, streptomycin sulphate, 0.5 mM of L-glutamine and 10% fetal bovine serum (FBS; Gibco) at 37° C., 5% CO2 and 95% relative humidity. The cells were seeded at a density of 3×10^5 per well of 6-well plates. After 24 hours, the cells were treated with different concentrations of compound NBM-HD-1 and 4 mM sodium butyrate being used as the positive control. The cells were observed after 48 hours and counted after 96 hours. […] In FIG. 8(A), after the cells were incubated with 2.5 μg/mL (FIG. 8(A)-b), 5 μg/mL (FIG. 8(A)-c) and 10 μg/mL (FIG. 8(A)-d) of NBM-HD-1 for 48 hours, the density of MCF-7 cells reduced dramatically in comparison with that of the control group (FIG. 8(A)-a). The morphology of the MCF-7 cells in the experimental group changed in comparison with that in the control group. […] The results of the cell counting (FIG. 8(B)) indicate that, similar to sodium butyrate, NBM-HD-1 inhibits cell growth.
# MCF-7 cancer cells were seeded at a density of 3×10^5 per well in 6-well plates. After 24 hours, the cells were treated with different concentrations of compound NBM-HD-2 and 4 mM sodium butyrate being used as the positive control. The cells were observed and counted after 72 hours. […] In FIG. 13(A), after the cells were incubated with 2.5 μg/mL (FIG. 13(A)-c), 5 μg/mL (FIG. 13(A)-d), 7.5 μg/mL (FIG. 13(A)-e) and 10 μg/mL (FIG. 13(A)-f) of NBM-HD-2 for 72 hours, the density of MCF-7 cells reduced dramatically in comparison with that of the control group (FIG. 13(A)-a). The morphology of the MCF-7 cells in the experimental group changed in comparison with that in the control group.
# MCF-7 cancer cells were seeded at a density of 3×10^5 per well of 6-well plates. After 24 hours, the cells were treated with different concentrations of compound NBM-HD-3 and 4 mM sodium butyrate, which was being used as the positive control. The cells were observed and counted after 72 hours. […] In FIG. 14(A), after the cells were incubated with 2.5 μg/mL (FIG. 14(A)-c), 5 μg/mL (FIG. 14(A)-d), 7.5 μg/mL (FIG. 14(A)-e) and 10 μg/mL (FIG. 14(A)-f) of NBM-HD-3 for 72 hours, the density of MCF-7 cells reduced dramatically in comparison with that of the control group (FIG. 14(A)-a). The morphology of the MCF-7 cells in the experimental group changed in comparison with that in the control group. […] The results of the cell counting (FIG. 14(B)) indicate that, similar to sodium butyrate, NBM-HD-3 inhibits cell growth.
# [3] = tested on: cyclin D1; details: MCF-7 breast cancer cells; cited from earlier work
# [4] = tested on: acetylated histone H4; assay: Western blotting of hyperacetylated histone H4 in C6 glioma cells; assay type: cell-based, rat
# Procedure: Accumulation of hyperacetylated histone H4 was analyzed in the cell lysates by using Western Blotting and the antibody directed against acetylated histone H4 (Upstate). The C6 glioma cells were seeded at a density of 1×10^6 per 10 cm culture dish. After 24 hours, the cells were treated with 10 μg/mL of NBM-HD-1 or 4 mM sodium butyrate for several hours. The whole-cell lysates were prepared by using denaturing SDS sample buffer and then separated on 15% SDS-polyacrylamide gels. […] The amount of acetylated histones was hardly detectable in untreated C6 glioma cells. The amount of acetylated histone H4 of the cells treated with 4 mM sodium butyrate for 2 hours increased. Sodium butyrate was then removed from the culture medium. After 6 hours, the amount of acetylated histone H4 decreased. The accumulation of acetylated histone H4 increased in the cells treated with NBM-HD-1 for 2 hours. […] The highest histone acetylation appeared at 6 hours after the compound had been removed. […] Because NBM-HD-1 is more hydrophobic than sodium butyrate, NBM-HD-1 can be retained in the cells longer than sodium butyrate and continuously induce the acetylation of histone H4.
# [5] = tested on: human giloblastoma DBTRG-05MG cancer cells; assay: Growth and morphology of human giloblastoma DBTRG-05MG cancer cells; assay type: cell-based; details: NBM-HD-1 2.5, 5, 10 μg/mL or 4 mM sodium butyrate, 72 hours
# Procedure: The human giloblastoma DBTRG-05MG cancer cells were cultured in RPMI medium 1640 (Gibco) supplemented with penicillin G, streptomycin sulphate, 0.5 mM of L-glutamine and 10% fetal bovine serum (FBS; Gibco), 100 mh/L sodium pyruvate (Gibco), and 1% NEAA (Gibco) at 37° C., 5% CO2 and 95% relative humidity. For these experiments, the cells were seeded at a density of 3×10^5 per well of 6-well plates. After 24 hours, the cells were treated with different concentrations of NBM-HD-1 and 4 mM sodium butyrate. The cells were observed and counted after 72 hours. […] In 05MG cells (FIG. 7(A)), after incubation with 2.5 μg/mL (FIG. 7(A)-b), 5 μg/mL (FIG. 7(A)-c) and 10 μg/mL (FIG. 7(A)-d) of NBM-HD-1 for 72 hours, the density of the cells reduced dramatically in comparison with that of the control group (FIG. 7(A)-a). The 05MG cells in the experimental group also changed to become longer than those in the control group.
# [6] = tested on: transgenic mouse model of spinal and bulbar muscular atrophy; details: cited from earlier work
# [7] = compound 2.5, 5, 7.5, 10 μg/mL or 4 mM sodium butyrate, 72 hours
smiles,measurement,setting,value
CN(C)c1ccc(C(=O)NCCCCCCC(=O)NO)cc1 [M344],up-regulation of SMN2 protein expression,[1],up to 7 fold
COc1cc2c(c(O)c1CCC(C)(C)O)C(=O)C[C@@H](c1ccc(OC)c(OC)c1C/C=C(\C)CCCC(C)(C)O)O2 [NBM-HD-3],morphology of MCF-7 cancer cells,"[2]; 2.5, 5, 7.5, 10 μg/mL, 72 hours",change their morphology
same,growth of MCF-7 cancer cells,[2]; [7],can inhibit the growth of MCF-7 cancer cells in a dose-dependent manner
CC(/C=C/C(=O)NO)=C\[C@@H](C)C(=O)c1ccc(N(C)C)cc1 [Trichostatin A],cyclin D1 degradation,[3],induce ubiquitin-dependent cyclin D1 degradation
"CCCC(=O)[O-].[Na+] [sodium butyrate, reference compound]",accumulation of hyperacetylated histone H4,"[4]; 10 μg/mL NBM-HD-1 or 4 mM sodium butyrate, 2 hours",can increase the accumulation of hyperacetylated histone H4
same,amount of acetylated histone H4 after removal of the compound,"[4]; after 2 hours treatment and removal from the culture medium, up to 6 hours",decreased
same,growth of 05MG cancer cells,[5],could inhibit the proliferation of 05MG cancer cells
same,growth of MCF-7 cancer cells,"[2]; NBM-HD-1 2.5, 5, 10 μg/mL or 4 mM sodium butyrate, observed after 48 hours, counted after 96 hours",able to inhibit the growth of MCF-7 cells
same,growth of MCF-7 cancer cells,[2]; [7],able to inhibit the growth of MCF-7 cells
same,phenotypic expression,[6],ameliorates phenotypic expression
